For series [1] the following is noted: rcm bond, 1,1,2-trichloroethane.
The target in another series is T1, calpain II (m calpain) (Homo sapiens, UniProt P17655).
T1 sequence (P17655 1-700): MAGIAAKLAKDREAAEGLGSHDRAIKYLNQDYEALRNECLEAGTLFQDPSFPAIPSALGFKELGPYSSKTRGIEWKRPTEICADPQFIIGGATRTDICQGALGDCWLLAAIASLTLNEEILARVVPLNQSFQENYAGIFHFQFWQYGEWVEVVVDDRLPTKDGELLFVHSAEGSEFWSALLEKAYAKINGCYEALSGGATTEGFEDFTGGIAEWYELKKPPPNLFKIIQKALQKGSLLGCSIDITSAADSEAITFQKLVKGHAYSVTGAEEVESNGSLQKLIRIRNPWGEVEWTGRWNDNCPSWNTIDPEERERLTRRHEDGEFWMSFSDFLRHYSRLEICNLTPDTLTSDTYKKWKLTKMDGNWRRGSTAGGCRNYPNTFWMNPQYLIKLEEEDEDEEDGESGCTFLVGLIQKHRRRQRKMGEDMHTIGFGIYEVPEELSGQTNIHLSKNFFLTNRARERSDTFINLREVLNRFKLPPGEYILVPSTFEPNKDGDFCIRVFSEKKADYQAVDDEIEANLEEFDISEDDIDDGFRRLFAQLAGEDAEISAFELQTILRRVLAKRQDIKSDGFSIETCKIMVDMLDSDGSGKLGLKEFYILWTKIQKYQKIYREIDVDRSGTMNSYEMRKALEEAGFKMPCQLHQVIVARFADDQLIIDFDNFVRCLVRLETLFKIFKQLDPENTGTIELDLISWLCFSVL
T1 sequence (P04632 1-268 partner): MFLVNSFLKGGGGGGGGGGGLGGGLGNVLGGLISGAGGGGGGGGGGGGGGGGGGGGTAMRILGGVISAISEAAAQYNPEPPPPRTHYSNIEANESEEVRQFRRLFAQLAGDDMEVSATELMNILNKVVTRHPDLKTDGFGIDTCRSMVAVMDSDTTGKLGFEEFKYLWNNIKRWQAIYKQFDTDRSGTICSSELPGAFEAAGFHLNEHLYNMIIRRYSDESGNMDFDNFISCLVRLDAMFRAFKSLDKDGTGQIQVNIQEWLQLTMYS
Put plainly: BODIPY-casein fluorescence-based enzyme assay, calpain II / m-calpain. The class given is biochemical. Particulars: BODIPY-casein substrate, Table 3; read-out: IC50 against m-calpain.

[2] abbreviates: 19-membered ring, Grubbs II (3 x 0.10 equiv), microwave, 10.0 mM.

Where two headings read alike, the source gives them in different places.

Method for calpain II (m calpain): The inhibitors were assayed against several enzymes using a BODIPY-casein substrate in the fluorescence-based assay procedure of V. F. Thompson, S. Saldana, J. Cong and D. E. Goll, Anal. Biochem. 2000, 279, 170.
A number of the compounds were assayed against m-calpain using a BODIPY-casein substrate in the fluorescence-based assay procedure of V. F. Thompson, S. Saldana, J. Cong and D. E. Goll, Anal. Biochem. 2000, 279, 170.

As for `COC(=O)[C@@H]1C/C=C/COc2ccc(cc2)C[C@H](NC(=O)OC(C)(C)C)C(=O)N[C@@H](C(C)C)C(=O)N1`, the ring closure, isolated yield in series [1] (17-membered ring, Grubbs II, 10.0 mM) turned out to be 12%.
Take `CC(C)C[C@@H]1NC(=O)[C@@H](NS(=O)(=O)c2ccc(F)cc2)Cc2ccc(cc2)OCCCC[C@@H](CO)NC1=O` [Compound 16, 4-Fluoro-N-((7S,10S,13S)-7-hydroxymethyl-10-isobutyl-9,12-dioxo-2-oxa-8,11-diaza-bicyclo-[13.2.2]nonadeca-1(18),15(19),16-trien-13-yl)-benzenesulfonamide]: on calpain II (m calpain), the IC50 is 930 nM.
On the same count and under the same terms, under `CC(C)C[C@@H]1NC(=O)[C@@H](NS(=O)(=O)c2ccc(F)cc2)Cc2ccc(cc2)OCCCC[C@@H](C=O)NC1=O` [Compound 17, 4-Fluoro-N-((7S,10S,13S)-7-formyl-10-isobutyl-9,12-dioxo-2-oxa-8,1′-diaza-bicyclo[13.2.2]-nonadeca-1(18),15(19),16-trien-13-yl)-benzenesulfonamide] stands 45 nM; under `CC(C)[C@@H]1NC(=O)[C@@H](NC(=O)OCc2ccccc2)Cc2ccc(cc2)OCCCCSC[C@@H](C=O)NC1=O` [Compound 36], 295 nM.
On the same count and under the same terms, the value for `CC(C)[C@@H]1NC(=O)[C@@H](NC(=O)OCc2ccccc2)Cc2ccc(cc2)OCCCC[C@@H](C=O)NC1=O` [Compound 50] was 40 nM.
On the same count and under the same terms, under `CC(C)[C@@H]1NC(=O)[C@@H](NC(=O)c2ccc[nH]2)Cc2ccc(cc2)OCCCC[C@@H](C=O)NC1=O` [Compound 52, 1H-Pyrrole-2-carboxylic acid ((7S,10S,13S)-7-formyl-10-isopropyl-9,12-dioxo-2-oxa-8,11-diaza-bicyclo[13.2.2]nonadeca-1(18),15(19),16-trien-13-yl)-amide] stands 690 nM.
As to `CC(C)[C@@H]1NC(=O)[C@@H](NS(=O)(=O)c2ccc(F)cc2)Cc2ccc(cc2)OCCCC[C@@H](C=O)NC1=O` [Compound 54, 4-Fluoro-N-((7S,10S,135)-7-formyl-10-isopropyl-9,12-dioxo-2-oxa-8,11-diaza-bicyclo[13.2.2]nonadeca-1(18),15(19),16-trien-13-yl)-benzenesulfonamide], the half-inhibitory concentration (IC50) on calpain II (m calpain) was determined as 280 nM.
As for `CC(C)[C@@H]1NC(=O)[C@@H](NS(C)(=O)=O)Cc2ccc(cc2)OCCCC[C@@H](C=O)NC1=O` [Compound 56, N-((7S,10S,13S)-7-Formyl-10-isopropyl-9,12-dioxo-2-oxa-8,11-diaza-bicyclo[13.2.2]nonadeca-1(18),15(19),16-trien-13-yl)-methanesulfonamide], the concentration for half-maximal inhibition (IC50) on calpain II (m calpain) was 950 nM.
The same measure, in the same setting: the value for `CC(C)[C@@H]1NC(=O)[C@@H](NS(=O)(=O)c2ccc(F)cc2)Cc2ccc(cc2)OCCCCSC[C@@H](C=O)NC1=O` [Compound 58, 4-Fluoro-N-((9R,12S,15S)-9-formyl-12-isopropyl-11,14-dioxo-2-oxa-7-thia-10,13-diaza-bicyclo[15.2.2]henicosa-1(20),17(21),18-trien-15-yl)-benzenesulfonamide] was 2400 nM; that for `CC(C)[C@@H]1NC(=O)[C@@H](NS(=O)(=O)c2ccc(F)cc2)Cc2ccc(cc2)OCCC[C@@H](C=O)NC1=O` [Compound 69, 4-Fluoro-N-((6S,9S,12S)-6-formyl-9-isopropyl-8,11-dioxo-2-oxa-7,10-diaza-bicyclo[12.2.2]octadeca-1(17),14(18),15-trien-12-yl)-benzenesulfonamide] was 3710 nM.
Still for that read-out and setting: the value for `CC(C)C[C@@H]1NC(=O)[C@@H](NC(=O)OCc2ccccc2)Cc2ccc(cc2)OCCCC[C@@H](CNC2CC2)NC1=O` [Compound 81, ((7S,10S,13S)-7-Cyclopropylaminomethyl-10-isobutyl-9,12-dioxo-2-oxa-8,11-diaza-bicyclo[13.2.2]nonadeca-1(18),15(19),16-trien-13-yl)-carbamic acid benzyl ester] was greater than 50000 nM.
Consider “(E/Z)-12S-tert-Butoxycarbonylamino-9S-isobutyl-8,11-dioxo-2-oxa-7,10-diazabicyclo[12.2.2]octadeca-1(17),4,14(18),15-tetraene-6S-carboxylic acid methyl ester”, for which, in series [1] (16-membered ring, Grubbs II (3 x 0.10 equiv), microwave, 10.0 mM), the ring closure, isolated yield is 48%.
For “(E/Z)-15S-tert-Butoxycarbonylamino-12S-isobutyl-11,14-dioxo-2,7-dioxa-10,13-diaza-bicyclo[15.2.2]heneicosa-1(20),4,17(21),18-tetraene-9R-carboxylic acid methyl ester”, the ring closure, isolated yield in series [1] (setting [2]) was determined as 33%.
With “(E/Z)-15S-tert-Butoxycarbonylamino-12S-isobutyl-11,14-dioxo-2-oxa-2-thia-10,13-diaza-bicyclo[15.2.2]heneicosa-1(20),4,17(21),18-tetraene-9R-carboxylic acid methyl ester”, in series [1] (setting [2]), the ring closure, isolated yield was 40%.
In series [1] (17-membered ring, Grubbs II/Cy2BCl, 10.3 mM), “(E/Z)-(7S,10S,13S)-13-(4-Fluoro-benzenesulfonylamino)-10-isobutyl-9,12-dioxo-2-oxa-8,11-diaza-bicyclo[13.2.2]nonadeca-1(18),4,15(19),16-tetraene-7-carboxylic acid methyl ester” returned a ring closure, isolated yield of 63%.
As for “(E/Z)-(9R,12S,15S)-15-tert-Butoxycarbonylamino-12-isopropyl-11,14-dioxo-2-oxa-7-thia-10,13-diaza-bicyclo[15.2.2]henicosa-1(20),4,17(21),18-tetraene-9-carboxylic acid methyl ester”, in series [1] (19-membered ring, Grubbs II, 17.3 mM), the ring closure, isolated yield stood at 72%.
For the compound “(E/Z)-(9S,12S,15S)-15-tert-Butoxycarbonylamino-12-isopropyl-11,14-dioxo-2,7-dioxa-10,13-diaza-bicyclo[15.2.2]henicosa-1(20),4,17(21),18-tetraene-9-carboxylic acid methyl ester”, in series [1] (19-membered ring, Grubbs II, 12.6 mM), the ring closure, isolated yield worked out at 23%.

For the origin of these results see patent US8710178B2, “Macrocyclic cysteine protease inhibitors and compositions thereof” (Lincoln University, priority 2006, dated 2014).
